{"source": "paper PMC5717164", "about": "(Nature Communications, 2017)", "key": {"[1]": {"biological_target": "T1, D-alanine:D-alanine ligase (EcDdlB) (Escherichia coli, UniProt P07862)", "T1 construct": "gene ddlB; all 306 residues of the native protein, with amino-terminal histidine-tag", "assay": "co-crystal structure at […] Å (formed in situ from ATP and DCS)", "assay_type": "binding"}, "[2]": {"biological_target": "T1, D-alanine:D-alanine ligase (EcDdlB)", "assay": "co-crystal structures at […] Å (with D-Ala-D-Ala) and […] Å (with DCSP, 4C5A)", "assay_type": "binding"}}, "data": [{"smiles": "NC1CON=C1OP(=O)(O)O", "note": "[DCSP, phosphorylated D-cycloserine]", "values": [{"measurement": "co-crystal structure at 1.65 Å (formed in situ from ATP and DCS)", "setting": "[1]", "result": "phosphorylated DCS was bound in the high-affinity D-alanine binding site (D-Ala1)"}]}, {"smiles": "Nc1ncnc2c1ncn2[C@@H]1O[C@H](COP(=O)(O)OP(=O)(O)O)[C@@H](O)[C@H]1O", "note": "[ADP]", "values": [{"measurement": "co-crystal structures at 1.5 Å (with D-Ala-D-Ala) and 1.65 Å (with DCSP, 4C5A)", "setting": "[2]", "result": "The adenine ring of the ATP or ADP ligand lies in a pocket mainly composed of hydrophobic and aromatic residues"}]}]}
